What was measured:
Estrogen receptor = biological target: T1, Estrogen receptor (Homo sapiens, UniProt P03372); format: functional
T1 sequence (P03372 whole entry): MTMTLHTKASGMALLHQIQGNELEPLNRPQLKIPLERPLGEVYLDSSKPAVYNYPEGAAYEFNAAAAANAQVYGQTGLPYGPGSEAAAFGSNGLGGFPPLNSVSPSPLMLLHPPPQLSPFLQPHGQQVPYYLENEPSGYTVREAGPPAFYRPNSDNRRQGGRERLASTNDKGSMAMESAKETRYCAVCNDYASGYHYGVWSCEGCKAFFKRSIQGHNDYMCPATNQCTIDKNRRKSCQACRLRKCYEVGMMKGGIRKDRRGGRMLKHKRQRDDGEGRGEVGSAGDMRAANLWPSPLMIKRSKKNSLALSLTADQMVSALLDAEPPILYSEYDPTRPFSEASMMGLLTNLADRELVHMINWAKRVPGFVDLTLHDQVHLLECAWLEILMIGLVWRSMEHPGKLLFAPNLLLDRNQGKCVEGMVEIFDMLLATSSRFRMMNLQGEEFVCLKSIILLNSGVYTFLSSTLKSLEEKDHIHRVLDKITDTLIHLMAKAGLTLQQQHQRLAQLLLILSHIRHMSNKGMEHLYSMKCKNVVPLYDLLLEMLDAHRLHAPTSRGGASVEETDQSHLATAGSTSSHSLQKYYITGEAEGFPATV

Glucocorticoid receptor [1] = biological target: T2, Glucocorticoid receptor (Homo sapiens, UniProt P04150); format: functional
T2 sequence (P04150 whole entry): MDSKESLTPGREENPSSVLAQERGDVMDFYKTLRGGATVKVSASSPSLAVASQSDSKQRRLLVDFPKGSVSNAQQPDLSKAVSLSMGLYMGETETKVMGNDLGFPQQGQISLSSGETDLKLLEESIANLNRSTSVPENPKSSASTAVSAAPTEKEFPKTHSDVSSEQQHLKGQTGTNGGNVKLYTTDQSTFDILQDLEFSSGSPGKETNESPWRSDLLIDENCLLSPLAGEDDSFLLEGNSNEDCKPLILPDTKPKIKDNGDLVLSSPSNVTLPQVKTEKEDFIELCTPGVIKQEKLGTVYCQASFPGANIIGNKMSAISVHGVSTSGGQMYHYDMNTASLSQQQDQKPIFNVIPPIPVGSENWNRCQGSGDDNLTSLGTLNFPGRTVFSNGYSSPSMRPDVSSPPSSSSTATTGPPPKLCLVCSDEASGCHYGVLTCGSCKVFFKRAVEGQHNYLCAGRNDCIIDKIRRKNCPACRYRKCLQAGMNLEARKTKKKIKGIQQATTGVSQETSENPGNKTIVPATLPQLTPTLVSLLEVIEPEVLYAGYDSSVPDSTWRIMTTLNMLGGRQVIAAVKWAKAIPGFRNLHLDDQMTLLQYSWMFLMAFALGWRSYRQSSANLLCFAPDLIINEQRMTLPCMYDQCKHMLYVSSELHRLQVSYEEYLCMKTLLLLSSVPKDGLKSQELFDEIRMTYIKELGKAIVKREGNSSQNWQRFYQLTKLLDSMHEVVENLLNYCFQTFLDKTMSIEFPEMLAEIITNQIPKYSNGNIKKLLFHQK

Glucocorticoid receptor [2] = biological target: T2, Glucocorticoid receptor; format: functional; remark: listed apart in the source
[3] = biological target: T3, Muscarinic acetylcholine receptor M4 (Homo sapiens, UniProt P08173)
T3 sequence (P08173 whole entry): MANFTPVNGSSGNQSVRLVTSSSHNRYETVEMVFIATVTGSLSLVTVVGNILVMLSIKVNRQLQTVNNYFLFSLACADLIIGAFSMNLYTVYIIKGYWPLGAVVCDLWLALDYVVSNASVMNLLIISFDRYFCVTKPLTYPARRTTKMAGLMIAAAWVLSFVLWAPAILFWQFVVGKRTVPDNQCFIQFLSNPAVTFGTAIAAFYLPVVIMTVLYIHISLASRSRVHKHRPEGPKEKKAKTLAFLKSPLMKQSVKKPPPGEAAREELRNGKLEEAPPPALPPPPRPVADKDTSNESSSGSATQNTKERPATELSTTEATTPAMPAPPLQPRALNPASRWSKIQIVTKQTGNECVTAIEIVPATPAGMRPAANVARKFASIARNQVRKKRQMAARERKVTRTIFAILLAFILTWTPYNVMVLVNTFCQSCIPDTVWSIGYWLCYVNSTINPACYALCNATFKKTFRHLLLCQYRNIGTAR

D(1B) dopamine receptor = D(1B) dopamine receptor (Homo sapiens, UniProt P21918)
Sequence of D(1B) dopamine receptor (P21918 whole entry): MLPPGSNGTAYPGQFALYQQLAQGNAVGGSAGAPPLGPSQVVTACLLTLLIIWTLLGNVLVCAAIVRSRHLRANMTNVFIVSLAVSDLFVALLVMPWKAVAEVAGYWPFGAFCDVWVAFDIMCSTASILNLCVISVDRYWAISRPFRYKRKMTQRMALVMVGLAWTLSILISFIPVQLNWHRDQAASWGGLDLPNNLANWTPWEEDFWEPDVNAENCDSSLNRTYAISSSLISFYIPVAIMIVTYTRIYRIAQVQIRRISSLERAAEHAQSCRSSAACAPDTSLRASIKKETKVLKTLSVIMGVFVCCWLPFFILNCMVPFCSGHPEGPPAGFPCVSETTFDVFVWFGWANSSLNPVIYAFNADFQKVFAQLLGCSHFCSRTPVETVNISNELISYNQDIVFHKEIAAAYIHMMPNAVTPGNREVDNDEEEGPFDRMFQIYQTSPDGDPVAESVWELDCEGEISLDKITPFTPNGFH

[4] = biological target: T4, Type-1 angiotensin II receptor (Homo sapiens, UniProt P30556)
T4 sequence (P30556 whole entry): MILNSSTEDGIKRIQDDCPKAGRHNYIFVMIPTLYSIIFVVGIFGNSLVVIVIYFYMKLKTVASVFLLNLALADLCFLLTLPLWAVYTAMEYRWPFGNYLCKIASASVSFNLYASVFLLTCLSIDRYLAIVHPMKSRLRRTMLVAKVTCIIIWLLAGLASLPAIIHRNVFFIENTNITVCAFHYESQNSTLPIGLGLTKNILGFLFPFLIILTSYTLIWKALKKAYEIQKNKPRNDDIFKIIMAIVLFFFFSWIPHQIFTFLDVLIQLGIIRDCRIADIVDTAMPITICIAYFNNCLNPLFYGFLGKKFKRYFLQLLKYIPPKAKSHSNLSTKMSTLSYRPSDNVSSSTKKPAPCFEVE

[5] = biological target: T5, Type-2 angiotensin II receptor (Homo sapiens, UniProt P50052); format: functional
T5 sequence (P50052 whole entry): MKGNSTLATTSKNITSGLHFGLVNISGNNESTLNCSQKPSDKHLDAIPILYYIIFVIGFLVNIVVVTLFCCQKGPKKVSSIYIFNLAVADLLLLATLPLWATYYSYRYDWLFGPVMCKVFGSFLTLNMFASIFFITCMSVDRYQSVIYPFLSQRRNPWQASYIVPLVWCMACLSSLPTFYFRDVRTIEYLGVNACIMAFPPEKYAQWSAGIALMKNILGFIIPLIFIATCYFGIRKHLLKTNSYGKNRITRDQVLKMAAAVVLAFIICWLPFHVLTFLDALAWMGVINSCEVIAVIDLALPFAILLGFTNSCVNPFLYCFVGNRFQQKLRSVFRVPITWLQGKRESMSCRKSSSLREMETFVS
Further: assay procedure not described here.

Compound | AC50 (Estrogen receptor) | AC50 (Glucocorticoid receptor [1]) | AC50 (Glucocorticoid receptor [2]) | AC50 [3] | AC50 (D(1B) dopamine receptor) | AC50 [4] | AC50 [5]
CC(=O)O[C@H]1CC[C@@]2(C)C(=CC[C@@H]3[C@@H]2CC[C@]2(C)C(c4cccnc4)=CC[C@@H]32)C1 [ABIRATERONE ACETATE] | > 30 µM | > 30 µM | > 30 µM |  |  |  | 
CCCCc1ncc(/C=C(\Cc2cccs2)C(=O)O)n1Cc1ccc(C(=O)O)cc1 [EPROSARTAN] |  |  |  | > 10 µM | > 10 µM | 0.0042 µM | > 100 µM
CCCc1nc(C(C)(C)O)c(C(=O)OCc2oc(=O)oc2C)n1Cc1ccc(-c2ccccc2-c2nnn[nH]2)cc1 [OLMESARTAN MEDOXOMIL] |  |  |  |  |  | 0.0017 µM | 74.3 µM
N#Cc1ccc([C@H]2CCc3cncn32)c(F)c1 [OSILODROSTAT] |  |  |  | > 10 µM | > 10 µM |  | 
C/C(O)=C(\C#N)C(=O)Nc1ccc(C(F)(F)F)cc1 [TERIFLUNOMIDE] | > 30 µM | > 30 µM | > 10 µM |  |  |  | 
